{"source": "patent US20100184711A1", "about": "“Alpha-GLYCOSYL THIOLS AND alpha-S-LINKED GLYCOLIPIDS” (UNIVERSITY COLLEGE DUBLIN, NATIONAL UNIVERSITY OF IRELAND, …, priority 2008, published 2010)", "tested_on": "iNKT cells", "experiment": "iNKT cells co-cultured with CD1d+ cells, cytokine release", "type": "cell-based", "procedure": "iNKT cells were treated with an α-S-linked galactosylceramide (alpha-GalCer) to determine immunostimulatory activity. FIGS. 4 and 5 show the amounts of interferon-gamma and IL-4 released (expressed as a fold-increase over the levels produced in responses to the mock-transfected cells alone) in 5 experiments. Cytokine was released when iNKT cells were co-cultured with CD1d+ cells in the absence of added glycolipid (second bar). This was enhanced for both cytokines when alpha-GalCer was added and blocked using an antibody specific for CD1d.", "key": {"[1]": {"conditions": "iNKT cells co-cultured with CD1d+ cells, compared with no added glycolipid, 5 experiments, FIGS. 4 and 5"}}, "data": [{"molecule": "CCCCCCCCCCCCCCCCCCCCCCCCCC(=O)N[C@@H](CO[C@H]1O[C@H](CO)[C@H](O)[C@H](O)[C@H]1O)[C@H](O)[C@H](O)CCCCCCCCCCCCCC", "note": "[alpha-GalCer]", "values": [{"measurement": "effect of antibody specific for CD1d on glycolipid-induced cytokine release", "setting": "iNKT cells co-cultured with CD1d+ cells plus anti-CD1d antibody, both cytokines", "result": "blocked"}, {"measurement": "IL-4 released (fold-increase over the levels produced in response to mock-transfected cells alone)", "setting": "[1]", "result": "enhanced"}, {"measurement": "interferon-gamma released (fold-increase over the levels produced in response to mock-transfected cells alone)", "setting": "[1]", "result": "enhanced"}]}]}
